Measurements reported in patent publication US20010044425A1, “Compositions useful in the treatment of diseases of connective tissues” (priority 2000, published 2001).
Entries after “also recorded” stand apart in the source; their conditions may differ. Like-named read-outs stand apart in the source and are kept apart here.

Tested on: cartilage precursor cells from the developing limb bud of normal chick embryos
Assay: Cartilage development in micromass cultures of cartilage precursor cells
Type: cell-based
[1] = varying doses of the salt added to basic culture medium (about 0.6 μg/ml ferrous sulphate, about 75 μg/ml ascorbic acid) vs control group without addition, FIG. 2, FIG. 4

Row | Compound | cartilage development (amount of cartilage produced) | also measured
1 | O=C1O[C@H]([C@@H](O)CO)C(O)=C1O [ascorbic acid] |  | cartilage development (amount of cartilage produced) (ascorbic acid 75 or 150 μg/ml added vs control with no ascorbic acid added, FIG. 1): significantly enhances cartilage development in a dose-dependent manner
2 | O=S(=O)([O-])[O-].[Co+2] [cobalt (II) sulphate] | No statistically significant increase in cartilage development; also recorded: significantly reduce the amount of cartilage produced in a dose-dependent manner | 
3 | O=S(=O)([O-])[O-].O=S(=O)([O-])[O-].O=S(=O)([O-])[O-].[Fe+3].[Fe+3] [ferric sulphate] | no statistically significant difference | 
4 | O=C([O-])/C=C/C(=O)[O-].[Fe+2] [ferrous fumarate] |  | cartilage development (amount of cartilage produced) [1]: significantly enhanced cartilage production
5 | O=S(=O)([O-])[O-].[Fe+2] [ferrous sulphate] | significantly enhanced cartilage development in a dose-dependent manner | cartilage production when combined with ascorbic acid: significantly enhanced the cartilage production
6 | O=S(=O)([O-])[O-].[K+].[K+] [potassium sulphate] | No statistically significant increase in cartilage development | 
7 | O=S(=O)([O-])[O-].[Zn+2] [zinc sulphate] | no statistically significant increase in cartilage development | 
8 | ferrous ascorbate |  | cartilage development (amount of cartilage produced) [1]: significantly enhanced cartilage production
